From US6426093B1, “Synergistic biocidal activity if ternary complexes of negatively-charged biocides (component A), transition metal ions (component B), and neutral chelators (component C)” (Yissum Research Development Company of the Hebrew …, priority 1998, dated 2002) come the findings set out here.

One assay deals with E. coli. Put plainly: E. coli inactivation, survival by colony-forming ability. It counts as cell-based. How it is done:
A sample of bacteria from the stock solution was diluted 100-fold in “reaction buffer” to a final concentration of 0.6 OD600 (4.8×10^6 cells/ml). Various agents were added to the bacteria following 15 minutes of preincubation at 37° C. Aliquots were removed at indicated time points into “termination buffer” to stop the reaction, and diluted by a factor of 50 to 10^6. Samples from each dilution were then plated on LB agar and grown overnight at 37° C. Each sample was plated at least five times. The colonies formed were then counted. Survival curves were evaluated from colony counts. Each experiment was repeated at least three times, and the mean values and standard error of triplicates were calculated.
In the experiments shown in FIG. 3, all the incubation mixtures contained glucose (0.5% w/v) and MgSO4 (1 mM) in HEPES buffer (10 mM, pH=7.4), and bacteria (4.8×10^6 cells/ml). The cells were exposed to the combination of PCP (0.5 mM) and Fe(OP)3 (5 μM)—designated open triangles; or with the addition of DMSO (5%)—designated closed triangles; or with SOD (50 U/ml)—designated open circles. The results presented in Table 1, which were obtained using the experimental conditions and methods described above in this example, show the effect of different concentrations of PCP and copper complex and their combinations on the inactivation of E. coli.

For assay [1], the system named is Bone marrow-derived mast cells (MC-9 line). Put plainly: Killing of mast cells, survival by trypan blue method. It counts as cell-based, mice. Particulars: 30 minutes. How it is done: Bone marrow-derived mast cells (MC-9 line) were obtained from the femora of mice (line C57BL/6). The cells were cultured at 37° C. in humidified atmosphere containing 5% of CO2 in RPMI-1640, supplemented with 10% fetal calf serum, 2 mM L-glutamine, 100 U/ml penicillin, 100 μg/ml streptomycin, and 50 μM β-2-mercaptoethanol. Mast cells were grown (14 days), washed and resuspended in reaction medium (only RPMI-1640) and treated for 30 minutes as indicated above. The survival was determined by the trypan blue method.

Take `[Cu+2].c1cnc2c(c1)ccc1cccnc12.c1cnc2c(c1)ccc1cccnc12` [Cu^II (OP)2]: the “Survival (%)” value in the assay on E. coli (Cu^II (OP)2 1 μM) is 99.5%.

Consider `[Fe+2].c1cnc2c(c1)ccc1cccnc12.c1cnc2c(c1)ccc1cccnc12.c1cnc2c(c1)ccc1cccnc12` [Fe^II (OP)3], for which, in assay [1] (Fe^II (OP)3 100 (unit not given)), the “Survival (%)” value worked out at 95.4%.

Take `Oc1c(Cl)c(Cl)c(Cl)c(Cl)c1Cl` [PCP, Pentachlorophenol]: the results for the “Survival (%)” value (in the assay on E. coli (PCP 0.4 mM); in assay [1] (PCP 0.5 mM)) were 95.6% and 90.5%, respectively.

For `[Cu+2].c1cnc2c(c1)ccc1cccnc12.c1cnc2c(c1)ccc1cccnc12.c1cnc2c(c1)ccc1cccnc12` [[Cu^II (OP)3]^2+complex, 1,10-phenanthroline-copper [Cu^II (OP)3]^2+complex], the “activity relative to the analogous iron complex” value in the assay with E. coli (in combination with PCP, bacterial inactivation) is 100 times.
